Assay results reported in patent US20090326007A1, “Compounds and methods for modulating sir2 protein activity” (priority 2007, published 2009).
Entries after “also recorded” stand apart in the source; their conditions may differ. Where two headings read alike, the source gives them in different places. One block for each compound: values may come before it.

Columns and labels:
human SIRT3 = molecular target: T1, human SIRT3 (Homo sapiens, UniProt Q9NTG7); assay: Inhibition assay against human SIRT3 (fluorigenic)
T1 sequence (Q9NTG7 1-399): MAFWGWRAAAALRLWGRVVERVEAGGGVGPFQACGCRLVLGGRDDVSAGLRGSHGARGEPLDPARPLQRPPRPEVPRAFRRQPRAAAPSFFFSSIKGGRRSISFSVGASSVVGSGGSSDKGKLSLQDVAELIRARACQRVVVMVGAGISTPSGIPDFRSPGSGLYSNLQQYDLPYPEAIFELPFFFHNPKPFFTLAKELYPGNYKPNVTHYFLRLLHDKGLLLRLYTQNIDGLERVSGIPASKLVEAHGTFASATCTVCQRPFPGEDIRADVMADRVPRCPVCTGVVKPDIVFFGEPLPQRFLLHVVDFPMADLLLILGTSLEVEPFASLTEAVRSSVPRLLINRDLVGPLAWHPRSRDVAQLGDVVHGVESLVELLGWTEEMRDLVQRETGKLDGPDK
Procedure: (§1) Human recombinant SIRT3 was purchased from Enzo Life Sciences.
(§2) Inhibition Assay Against Human SIRT2 and SIRT3. […] Two independent measurements were performed for each compound and the average and standard deviation are reported.

full-length human SIRT1 = molecular target: T2, full-length human SIRT1 (Homo sapiens, UniProt Q96EB6); assay: IC50 determination, fluorigenic deacetylase assay, FL SIRT1; conditions: read-out: SIRT1 IC50; Table 5; 240 μM NAD+, 200 μM substrate, 1 μM FL SIRT1, 15 min
T2 sequence (Q96EB6 1-747): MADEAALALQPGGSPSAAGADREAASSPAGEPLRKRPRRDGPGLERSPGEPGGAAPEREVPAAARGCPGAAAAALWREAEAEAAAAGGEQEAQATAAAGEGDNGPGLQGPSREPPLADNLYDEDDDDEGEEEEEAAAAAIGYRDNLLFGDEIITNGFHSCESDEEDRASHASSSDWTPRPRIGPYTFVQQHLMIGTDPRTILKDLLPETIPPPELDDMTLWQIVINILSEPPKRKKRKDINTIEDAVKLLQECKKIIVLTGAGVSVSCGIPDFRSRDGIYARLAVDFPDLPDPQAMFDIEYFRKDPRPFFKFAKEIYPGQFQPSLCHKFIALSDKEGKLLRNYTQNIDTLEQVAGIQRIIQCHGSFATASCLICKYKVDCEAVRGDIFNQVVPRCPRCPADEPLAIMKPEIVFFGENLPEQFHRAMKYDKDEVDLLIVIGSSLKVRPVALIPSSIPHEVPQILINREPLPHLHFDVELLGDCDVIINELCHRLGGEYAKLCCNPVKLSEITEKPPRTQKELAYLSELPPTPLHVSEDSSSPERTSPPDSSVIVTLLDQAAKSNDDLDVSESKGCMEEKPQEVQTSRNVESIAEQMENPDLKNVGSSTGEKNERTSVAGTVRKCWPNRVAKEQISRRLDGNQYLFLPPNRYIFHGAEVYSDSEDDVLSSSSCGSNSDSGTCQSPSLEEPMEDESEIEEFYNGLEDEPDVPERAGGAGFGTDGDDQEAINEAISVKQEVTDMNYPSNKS
Procedure: Cells were harvested and lysed by sonication in buffer containing 50 mM Tris, pH 7.5, 200 mM NaCl, 5 mM imidizole, 10 mM β-mercaptoethanol (BME) and 0.1 mg/mL PMSF. Soluble FL SIRT1 was purified by Ni-NTA (Qiagen, Valencia, Calif.) in a buffer containing 50 mM Tris, pH 7.5, 300 mM NaCl, 10 mM BME, 5% glycerol and 30-600 mM imidizole followed by SUPERDEX-200 gel filtration in buffer containing 50 mM Tris, pH 7.5, 150 mM NaCl, and 10 mM BME. FL SIRT1 eluted between the 670 kDa and 158 kDa globular protein standards. Since SIRT1 is known to aggregate after several days at 4° C., the protein was aliquoted and frozen at −80° C. for use in fluorigenic assays.
(§3) IC50 Determination. […] The dose-response curves were then fit to one-site competition or sigmoidal-dose response curves as appropriate in [sequence] PRISM (GraphPad Software, La Jolla, Calif.) and the IC50 was determined. Three independent IC50 measurements were performed for each compound and the average and standard deviation are reported.

human SIRT2 = molecular target: T3, human SIRT2 (Homo sapiens, UniProt Q8IXJ6); assay: Inhibition assay against human SIRT2 (fluorigenic)
T3 sequence (Q8IXJ6 1-352 isoform Q8IXJ6-2): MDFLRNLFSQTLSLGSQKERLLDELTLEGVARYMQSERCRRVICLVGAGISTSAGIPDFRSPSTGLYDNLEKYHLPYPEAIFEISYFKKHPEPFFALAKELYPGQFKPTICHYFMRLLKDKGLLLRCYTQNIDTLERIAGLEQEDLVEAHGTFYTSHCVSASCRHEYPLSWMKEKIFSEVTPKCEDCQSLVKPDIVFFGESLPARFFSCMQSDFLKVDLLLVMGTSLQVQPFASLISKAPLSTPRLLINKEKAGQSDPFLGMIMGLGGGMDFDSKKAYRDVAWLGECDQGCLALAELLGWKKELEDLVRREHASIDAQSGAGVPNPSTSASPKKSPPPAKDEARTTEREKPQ
Procedure: as §1, §2

Hst2 [1] = molecular target: T4, Hst2 (Saccharomyces cerevisiae, UniProt P53686); assay: Competition assay (inhibition mode versus NAD+ and acetyl-lysine substrate); format: biochemical; conditions: for Ki: read-out: Ki
T4 sequence (P53686 1-294): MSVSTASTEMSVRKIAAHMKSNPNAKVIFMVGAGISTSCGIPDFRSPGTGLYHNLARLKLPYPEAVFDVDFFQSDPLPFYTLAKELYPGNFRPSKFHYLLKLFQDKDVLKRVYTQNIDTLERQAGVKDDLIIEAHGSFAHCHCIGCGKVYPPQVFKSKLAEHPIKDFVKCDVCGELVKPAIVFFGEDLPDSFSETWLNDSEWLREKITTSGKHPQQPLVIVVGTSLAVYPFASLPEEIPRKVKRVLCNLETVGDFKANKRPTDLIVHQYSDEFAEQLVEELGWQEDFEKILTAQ
Procedure: Competition Assay. […] The fluorigenic assay described above was used with a fixed enzyme concentration of 1 μM. When competition with NAD^+ was being tested, the FLUOR DE LYS-SIRT1 deacetylase substrate was held at a constant concentration of 100 μM and the NAD^+ was titrated from ⅓-5× KmNAD+ (5-80 μM). […] The inhibitors were titrated from ˜½-several times their estimated Ki as indicated. The reaction time was 15 minutes, and each condition was tested in duplicate. The Km, kcat and kcat/Km values were determined by direct fit of the data in SIGMAPLOT (Systat Software, Point Richmond, Calif.) to the Michealis-Menten equation. The Ki and Kis (the slope and intercept inhibition constants, respectively) and the competition type were also determined by a direct fit in SIGMAPLOT to both partial and full competitive, noncompetitive, uncompetitive and mixed competition models. Best-fit models were determined by several statistical methods including R^2, AICs and Sy.x as well as empirical evaluation of α and β values.
To determine the mechanism of inhibition of the compounds identified by HTS and to gain insight as to where these compounds may bind to the enzyme, inhibition modes were determined by varying each of the substrates with the other maintained at a fixed, saturating concentration (Table 11).

Hst2 [2] = molecular target: T4, Hst2; assay: IC50 determination, fluorigenic deacetylase assay, Hst2
Procedure: as §3
The resulting deacetylase activity for the three experiments was averaged and reported as a percentage relative to control wells containing no inhibitor.

Hst2 [3] = molecular target: T4, Hst2; assay: SAR analysis, fluorigenic assay at 50 and 500 μM; format: biochemical; conditions: FIG. 2, 50 μM and 500 μM compound
Excerpt: Structure Activity Relationship (SAR) Analysis.

[4] = 50 μM compound, relative to control without inhibitor
[5] = read-out: Hst2 IC50, Table 5, 160 μM NAD+, 100 μM substrate, 1 μM Hst2, 15 min

Compound: hexachlorophene [Compound 14a]
percent of residual enzyme activity, SIRT3 (human SIRT3; [4]): 39.5 ± 1.6%
potency estimated from few doses (human SIRT3; read-out: apparent IC50, SIRT3, estimated from single concentration): < 50 µM
IC50 (full-length human SIRT1): 34 ± 10 µM
percent of residual enzyme activity, SIRT2 (human SIRT2; [4]): 18.5 ± 0.8%
potency estimated from few doses (human SIRT2; read-out: apparent IC50, SIRT2, estimated from single concentration): < 50 µM
kcat (Hst2 [1]; substrate NAD+ varied): 0.56 ± 0.08 min⁻¹
Inhibition Mechanism (Hst2 [1]; substrate NAD+ varied, acetyl-lysine substrate 100 μM): fully non-competitive; also recorded: NC (full)
Ki (Hst2 [1]; substrate NAD+ varied): 3.9 ± 0.7 µM
kcat (Hst2 [1]; substrate acetyl-lysine varied): 1.33 ± 0.09 min⁻¹
Inhibition Mechanism (Hst2 [1]; substrate acetyl-lysine varied, NAD+ 160 μM): fully mixed
Ki (Hst2 [1]; substrate acetyl-lysine varied): 2.5 ± 1 µM
α (mixed inhibition model) (Hst2 [1]; with respect to the acetyl-lysine substrate): 13.4
IC50 (Hst2 [2]; Table 4, Hst2): 12.5 ± 0.6 µM
IC50 values (range in words) (Hst2 [2]; Table 5): low micromolar
IC50 (Hst2 [2]; [5]): 12.5 ± 0.6 µM

Compound: O=C1c2ccccc2C(=O)N1CCBr [Compound 91032]
IC50 (Hst2 [2]; Table 10, Hst2): No Inh.

Compound: CC(NC(=O)c1ccccc1/N=C/c1c(O)ccc2ccccc12)c1ccccc1 (centres unmarked) [Sirtinol (2), Sirtinol, reference compound]
IC50 (Hst2 [2]; [5]): 48 ± 11 µM

Compound: O=C1CCc2c(ccc3ccccc23)O1 [Splitomycin (3), Splitomycin, reference compound]
IC50 (Hst2 [2]; [5]): > 600 µM

Compound: CC(=O)[O][Cd][O]C(C)=O [Compound 11a, cadmium acetate]
IC50 (Hst2 [2]): 1 ± 0.2 µM
IC50 values (range in words) (Hst2 [2]; Table 5): sub-micromolar

Compound: [Hg+2] [Hg^2+]
inhibition of the Hst2 deacetylase reaction by metal ions (in words) (Hst2 [3]): inhibitors

Now from value to compound:

inhibition of the Hst2 deacetylase reaction by metal ions (in words) (Hst2 [3]): are not
Compound: [Mg+2] [Mg^2+]

inhibition of the Hst2 deacetylase reaction by metal ions (in words) (Hst2 [3]): inhibitors
Compound: [Co+2] [Co^2+]

IC50 (Hst2 [2]; Table 10, Hst2): No Inh.
Compound: O=C(O)CCCN1C(=O)c2ccccc2C1=O [Compound 427032]

IC50 (Hst2 [2]; [5]): > 600 µM
Compound: CN(C)CCCCC(=O)Nc1ccc(NC(=S)NC(=O)c2ccc(C(C)(C)C)cc2)cc1 [Tenovin-6 (5), Tenovin-6, reference compound]

IC50 (Hst2 [2]; Table 10, Hst2): No Inh.
Compound: CC(C)C(=O)CCN1C(=O)c2ccccc2C1=O [Compound 04265]

inhibition of the Hst2 deacetylase reaction by metal ions (in words) (Hst2 [3]): inhibitors
Compound: [Zn+2] [Zn^2+]

IC50 (Hst2 [2]; Table 10, Hst2): No Inh.
Compound: C[S+]([O-])CCC(C(=O)O)N1C(=O)c2ccccc2C1=O (centres unmarked) [Compound 0032]

IC50 (Hst2 [2]; Table 10, Hst2): No Inh.
Compound: O=C(O)CCN1C(=O)c2cc(Cl)c(Cl)cc2C1=O [Compound 39008]
